# Experimental data: patent US12365671B2, “Crystalline hydrate of topramezone sodium salt and preparation method therefor” (ROTAM AGROCHEM INTERNATIONAL COMPANY LIMITED, priority 2021, dated 2025)
# Test: Formulation preparation behaviour (jet pulverization, granulation)
# Assay type: physicochemical
# Conditions: e.g. soluble granule, sodium salt
# Text: The crystalline 2.5 hydrate of topramezone sodium salt of the present invention has huge advantages over the anhydrous form of topramezone sodium salt with respect to formulation preparation. The anhydrous topramezone sodium salt can be prepared according to the preparation method of the topramezone potassium salt alike compound reported in US2002025910A. […] Furthermore, the formulation preparation process is difficult. For example, when preparing the soluble granule, creaming and caking of the ingredients frequently occurs, and granulation thus becomes difficult.
row,Compound,behaviour during jet pulverization / granulation
1,Cc1c(C(=O)c2cnn(C)c2[O-])ccc(S(C)(=O)=O)c1C1=NOCC1.[Na+] [anhydrous topramezone sodium salt],easy to agglomerate during jet pulverization
2,Cc1c(C(=O)c2cnn(C)c2[O-])ccc(S(C)(=O)=O)c1C1=NOCC1.[Na+] [crystalline 2.5 hydrate of topramezone sodium salt],can be granulated easily
